Assay results taken from patent US20090131431A1, “Pyrazolo[3,4-b]pyridine compounds, and their use as a PDE4 inhibitors” (priority 2005, published 2009).
Counter-ions that a name gives are not always drawn.

Target: T1, PDE4B (human recombinant) (Homo sapiens, UniProt Q07343)
T1 construct: made in house
Experiment: Inhibition of PDE4B activity: SPA and/or Fluorescence Polarisation (FP) assay
Assay type: biochemical
Conditions: one reading (n=1) or average of 2 or more readings, read-out: PDE4B pIC50 (±about 0.5) (converted)
Outline: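 Human recombinant PDE4B activity measured by SPA with [3H]cAMP at about 10 nM, 1 h at ambient temperature, enzyme set for ≤20% substrate hydrolysis, or by IMAP FP with Fl-cAMP at about 40 nM, 40 min at ambient temperature under linear conditions. Inhibition curves fitted; values reported as pIC50.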

T1 sequence (Q07343 1-564 isoform Q07343-2): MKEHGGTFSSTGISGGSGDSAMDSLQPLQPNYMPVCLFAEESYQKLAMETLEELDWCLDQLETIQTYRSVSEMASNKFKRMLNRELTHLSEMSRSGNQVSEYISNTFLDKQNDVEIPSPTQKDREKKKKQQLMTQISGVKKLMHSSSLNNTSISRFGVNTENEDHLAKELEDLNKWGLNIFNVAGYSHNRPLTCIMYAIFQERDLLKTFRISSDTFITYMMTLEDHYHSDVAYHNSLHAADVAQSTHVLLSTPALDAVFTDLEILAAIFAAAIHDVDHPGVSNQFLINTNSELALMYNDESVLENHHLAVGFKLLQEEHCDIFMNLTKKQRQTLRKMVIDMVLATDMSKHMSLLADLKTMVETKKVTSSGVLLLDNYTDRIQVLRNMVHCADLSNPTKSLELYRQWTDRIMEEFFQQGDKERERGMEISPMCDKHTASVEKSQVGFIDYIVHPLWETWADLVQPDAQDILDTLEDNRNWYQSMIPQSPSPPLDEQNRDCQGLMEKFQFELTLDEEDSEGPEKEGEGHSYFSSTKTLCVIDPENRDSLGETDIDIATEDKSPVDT

IC50 [nM] | SMILES
0.01 to 0.1 | CCn1ncc2c(NC3CCN(C(N)=O)CC3)c(CNC(=O)c3cccc4c3OCC4)c(C)nc21 [Example 270, 4-[(5-{[(2,3-dihydro-1-benzofuran-7-ylcarbonyl)amino]methyl}-1-ethyl-6-methyl-1H-pyrazolo[3,4-b]pyridin-4-yl)amino]-1-piperidinecarboxamide]
0.126 to 1 | CCc1nc2c(cnn2CC)c(NC2CCOCC2)c1CNC(=O)c1ccc(C(F)(F)F)nc1 [Example 326, N-{[1,6-diethyl-4-(tetrahydro-2H-pyran-4-ylamino)-1H-pyrazolo[3,4-b]pyridin-5-yl]methyl}-6-(trifluoromethyl)-3-pyridinecarboxamide]
0.126 to 1 | CCn1ncc2c(NC3CCOCC3)c(CNC(=O)c3cnc(C)s3)c(C(F)(F)F)nc21 [Example 349, N-{[1-Ethyl-4-(tetrahydro-2H-pyran-4-ylamino)-6-(trifluoromethyl)-1H-pyrazolo[3,4-b]pyridin-5-yl]methyl}-2-methyl-1,3-thiazole-5-carboxamide]
0.01 to 0.1 | CCc1nc2c(cnn2CC)c(NC2CCOCC2)c1CNC(=O)c1ccc(C(=O)NC)cc1 [Example 255, N-{[1,6-diethyl-4-(tetrahydro-2H-pyran-4-ylamino)-1H-pyrazolo[3,4-b]pyridin-5-yl]methyl}-N′-methyl-1,4-benzenedicarboxamide]
0.126 to 1 | CCn1ncc2c(NC3CCOCC3)c(CN3Cc4occc4C3=O)c(C)nc21 [Example 301, 5-{[1-ethyl-6-methyl-4-(tetrahydro-2H-pyran-4-ylamino)-1H-pyrazolo[3,4-b]pyridin-5-yl]methyl}-5,6-dihydro-4H-furo[2,3-c]pyrrol-4-one]
0.126 to 1 | CCn1ncc2c(NC3CCOCC3)c(CNC(=O)c3ccc4c(c3)CCC4)c(C)nc21 [Example 284, N-{[1-ethyl-6-methyl-4-(tetrahydro-2H-pyran-4-ylamino)-1H-pyrazolo[3,4-b]pyridin-5-yl]methyl}-2,3-dihydro-1H-indene-5-carboxamide]
0.126 to 1 | CCn1ncc2c(NC3CCOCC3)c(CNC(=O)c3cnc(C(C)C)nc3)c(C)nc21 [Example 347, N-{[1-ethyl-6-methyl-4-(tetrahydro-2H-pyran-4-ylamino)-1H-pyrazolo[3,4-b]pyridin-5-yl]methyl}-2-(1-methylethyl)-5-pyrimidinecarboxamide]
0.01 to 0.1 | CCn1ncc2c(NC3CCN(C(N)=O)CC3)c(CNC(=O)c3ccc(NC(C)=O)c4c3OCC4)c(C)nc21 [Example 305, 4-({5-[({[4-(acetylamino)-2,3-dihydro-1-benzofuran-7-yl]carbonyl}amino)methyl]-1-ethyl-6-methyl-1H-pyrazolo[3,4-b]pyridin-4-yl}amino)-1-piperidinecarboxamide]
0.01 to 0.1 | CCc1nc2c(cnn2CC)c(NC2CCOCC2)c1CNC(=O)c1ccc(C(N)=O)cc1 [Example 253, N-{[1,6-diethyl-4-(tetrahydro-2H-pyran-4-ylamino)-1H-pyrazolo[3,4-b]pyridin-5-yl]methyl}-1,4-benzenedicarboxamide]
0.126 to 1 | CCn1ncc2c(NC3CCOCC3)c(CNC(=O)c3ccc(C)nc3)c(C)nc21 [Example 337, N-{[1-ethyl-6-methyl-4-(tetrahydro-2H-pyran-4-ylamino)-1H-pyrazolo[3,4-b]pyridin-5-yl]methyl}-6-methyl-3-pyridinecarboxamide]
0.126 to 1 | CCc1nc2c(cnn2CC)c(NC2CCOCC2)c1CNC(=O)c1oc(C)nc1C [Example 335, N-{[1,6-diethyl-4-(tetrahydro-2H-pyran-4-ylamino)-1H-pyrazolo[3,4-b]pyridin-5-yl]methyl}-2,4-dimethyl-1,3-oxazole-5-carboxamide formate]
0.01 to 0.1 | CCn1ncc2c(NC3CCOCC3)c(CNC(=O)c3cccc(NC(C)=O)c3)c(C)nc21 [Example 280, 3-(acetylamino)-N-{[1-ethyl-6-methyl-4-(tetrahydro-2H-pyran-4-ylamino)-1H-pyrazolo[3,4-b]pyridin-5-yl]methyl}benzamide]
0.126 to 1 | CCc1nc2c(cnn2CC)c(NC2CCOCC2)c1CNC(=O)c1ccc(S(C)(=O)=O)cc1 [Example 249, N-{[1,6-diethyl-4-(tetrahydro-2H-pyran-4-ylamino)-1H-pyrazolo[3,4-b]pyridin-5-yl]methyl}-4-(methylsulfonyl)benzamide]
0.01 to 0.1 | CCc1nc2c(cnn2CC)c(NC2CCN(C(N)=O)CC2)c1CNC(=O)c1cccc(NC(C)=O)c1 [Example 244, 4-({5-[({[3-(acetylamino)phenyl]carbonyl}amino)methyl]-1,6-diethyl-1H-pyrazolo[3,4-b]pyridin-4-yl}amino)-1-piperidinecarboxamide]
0.126 to 1 | CCc1nc2c(cnn2CC)c(NC2CCOCC2)c1CNC(=O)c1ccc(F)cc1 [Example 307, N-{[1,6-diethyl-4-(tetrahydro-2H-pyran-4-ylamino)-1H-pyrazolo[3,4-b]pyridin-5-yl]methyl}-4-fluorobenzamide]
0.01 to 0.1 | CCn1ncc2c(NC3CCN(C(N)=O)CC3)c(CNC(=O)c3ccc(C(=O)NC)cc3)c(C)nc21 [Example 268, N-[(4-{[1-(aminocarbonyl)-4-piperidinyl]amino}-1-ethyl-6-methyl-1H-pyrazolo[3,4-b]pyridin-5-yl)methyl]-N′-methyl-1,4-benzenedicarboxamide]
0.126 to 1 | CCc1nc2c(cnn2CC)c(NC2CCOCC2)c1CNC(=O)c1cnco1 [Example 239, N-{[1,6-diethyl-4-(tetrahydro-2H-pyran-4-ylamino)-1H-pyrazolo[3,4-b]pyridin-5-yl]methyl}-1,3-oxazole-5-carboxamide]
0.126 to 1 | CCn1ncc2c(NC3CCOCC3)c(CNC(=O)c3csc(C(F)(F)F)n3)c(C)nc21 [Example 319, N-{[1-ethyl-6-methyl-4-(tetrahydro-2H-pyran-4-ylamino)-1H-pyrazolo[3,4-b]pyridin-5-yl]methyl}-2-(trifluoromethyl)-1,3-thiazole-4-carboxamide]
0.01 to 0.1 | CCn1ncc2c(NC3CCN(C(N)=O)CC3)c(CNC(=O)c3cccc(NC(C)=O)c3)c(C)nc21 [Example 264, 4-({5-[({[3-(acetylamino)phenyl]carbonyl}amino)methyl]-1-ethyl-6-methyl-1H-pyrazolo[3,4-b]pyridin-4-yl}amino)-1-piperidinecarboxamide]

The next lines start with the compound.

SMILES | IC50 [nM]
CCc1nc2c(cnn2CC)c(NC2CCOCC2)c1CNC(=O)c1ccc2c(c1)CCCC2 [Example 177, N-{[1,6-diethyl-4-(tetrahydro-2H-pyran-4-ylamino)-1H-pyrazolo[3,4-b]pyridin-5-yl]methyl}-5,6,7,8-tetrahydro-2-naphthalenecarboxamide] | 0.126 to 1
CCn1ncc2c(NC3CCOCC3)c(CNC(=O)c3ccc(N4CCCCC4)cc3)c(C)nc21 [Example 116, N-{[1-ethyl-6-methyl-4-(tetrahydro-2H-pyran-4-ylamino)-1H-pyrazolo[3,4-b]pyridin-5-yl]methyl}-4-(1-piperidinyl)benzamide] | 0.01 to 0.1
CCc1nc2c(cnn2CC)c(NC2CCOCC2)c1CNC(=O)c1cncnc1 [Example 151, N-{[1,6-diethyl-4-(tetrahydro-2H-pyran-4-ylamino)-1H-pyrazolo[3,4-b]pyridin-5-yl]methyl}-5-pyrimidinecarboxamide] | 0.126 to 1
CCn1ncc2c(NC3CCOCC3)c(CNC(=O)c3cccc4c3OCC4)c(C)nc21 [Example 220, N-{[1-ethyl-6-methyl-4-(tetrahydro-2H-pyran-4-ylamino)-1H-pyrazolo[3,4-b]pyridin-5-yl]methyl}-2,3-dihydro-1-benzofuran-7-carboxamide] | 0.01 to 0.1
CCc1nc2c(cnn2CC)c(NC2CCOCC2)c1CNC(=O)NCc1ccccc1 [Example 200] | 0.126 to 1
CCc1nc2c(cnn2CC)c(NC2CCOCC2)c1CNC(=O)c1ccccc1F [Example 232, N-{[1,6-diethyl-4-(tetrahydro-2H-pyran-4-ylamino)-1H-pyrazolo[3,4-b]pyridin-5-yl]methyl}-2-fluorobenzamide] | 0.01 to 0.1
CCc1nc2c(cnn2CC)c(NC2CCOCC2)c1CNC(=O)Nc1ccccc1 [Example 203, N-{[1,6-diethyl-4-(tetrahydro-2H-pyran-4-ylamino)-1H-pyrazolo[3,4-b]pyridin-5-yl]methyl}-N′-phenylurea] | 0.126 to 1
CCn1ncc2c(NC3CCOCC3)c(CNC(=O)c3ccc(NC(C)=O)cc3)c(C)nc21 [Example 93, 4-(acetylamino)-N-{[1-ethyl-6-methyl-4-(tetrahydro-2H-pyran-4-ylamino)-1H-pyrazolo[3,4-b]pyridin-5-yl]methyl}benzamide] | 0.126 to 1
CCc1nc2c(cnn2CC)c(NC2CCOCC2)c1CNC(=O)C1CCCO1 (centres unmarked) [Example 156, N-{[1,6-diethyl-4-(tetrahydro-2H-pyran-4-ylamino)-1H-pyrazolo[3,4-b]pyridin-5-yl]methyl}tetrahydro-2-furancarboxamide] | 0.126 to 1
CCc1nc2c(cnn2CC)c(NC2CCOCC2)c1CNC(=O)c1ccc2ccccc2c1 [Example 191, N-{[1,6-diethyl-4-(tetrahydro-2H-pyran-4-ylamino)-1H-pyrazolo[3,4-b]pyridin-5-yl]methyl}-2-naphthalenecarboxamide] | 0.126 to 1
CCc1nc2c(cnn2CC)c(NC2CCN(C(N)=O)CC2)c1CNC(=O)c1ccc(C2CCCC2)cc1 [Example 210, 4-{[5-({[(4-cyclopentylphenyl)carbonyl]amino}methyl)-1,6-diethyl-1H-pyrazolo[3,4-b]pyridin-4-yl]amino}-1-piperidinecarboxamide] | 0.01 to 0.1
CCc1nc2c(cnn2CC)c(NC2CCOCC2)c1CNC(=O)c1ccn(C)n1 [Example 238, N-{[1,6-diethyl-4-(tetrahydro-2H-pyran-4-ylamino)-1H-pyrazolo[3,4-b]pyridin-5-yl]methyl}-1-methyl-1H-pyrazole-3-carboxamide] | 0.126 to 1
CCn1ncc2c(NC3CCOCC3)c(CNC(=O)c3cccnc3)c(C)nc21 [Example 125, N-{[1-ethyl-6-methyl-4-(tetrahydro-2H-pyran-4-ylamino)-1H-pyrazolo[3,4-b]pyridin-5-yl]methyl}-3-pyridinecarboxamide] | 0.126 to 1
